Results reported in patent US8729097B2, “Quinoline compounds as inhibitors of angiogenesis, human methionine aminopeptidase, and SIRT1, and methods of treating disorders” (The Johns Hopkins University, priority 2008, dated 2014).

Key:
[1] = test system: Saccharomyces cerevisiae strain BY4743; assay: Yeast growth assay (wild type, map1Δ, map2Δ); format: cell-based; details: drug on paper disc
Description: Saccharomyces cerevisiae strain BY4743 (MATa/α his3Δ1/his3Δ1 leu2Δ0/leu2Δ0 lys2Δ0/LYS2) and its isogenic haploid derivatives for MetAP1 (map1Δ) and MetAP2 (map2Δ) deletion mutants were used for yeast growth assays. Drugs dissolved in DMSO were spotted onto sterile filter disks and dried before experiments. Exponentially growing yeast strains were mixed with top agar and plated on YPD (1% yeast extract/2% peptone/2% glucose) plates. The filter disks were then placed on the YPD plates containing yeasts and the incubation was continued for 48 h at 30° C.

[2] = test system: breast cancer cells as well as human umbilical vein endothelial cells (HUVECs); assay: Cell proliferation assay, breast cancer cells and HUVECs; format: cell-based
Description: Cell proliferation assay was performed using several different kinds of breast cancer cells as well as human umbilical vein endothelial cells (HUVECs). […].
HCC1954 cells were grown in RPMI1640 containing 10% FBS. HUVEC were grown using the EGM-2 bullet kit (Cambrex) as per manufacturer's instructions. The cells were maintained in a humidified incubator adjusted to 5% CO2. For drug screening, 10 mM stock solutions of Johns Hopkins Drug Library were arrayed in 96-well plates and screened at a final concentration of 10 μM. The cell growth was determined using a [^3H]-thymidine incorporation assay. Cells (typically 5,000 cells/well) were seeded in 96-well plates containing 0.2 ml of growth media and allowed to adhere for 24 h. The cells were then treated with drugs for 24 h. Cells were pulsed with 1 μCi [^3H]-thymidine (MP Biomedicals, 6.7 Ci mmol^−1) for 8 h and harvested, upon trypsin treatment, onto glass fiber filters (Wallac, Turku, Finland), from which ^3H counts were determined using a Perkin Elmer MicroBeta plate reader.

[3] = test system: N-terminal methionine processing of 14-3-3γ by hMetAP2; assay: N-terminal methionine processing of 14-3-3γ in HUVEC (Western blot); format: cell-based, human; details: 10 nM
Description: 14-3-3γ is known as a substrate of eukaryotic MetAPs and the inhibition of either isotype of MetAPs was reported to increase the N-terminal methionyl form of the protein.
Cells were lysed by adding 1 volume of 2× Laemmli buffer and were then boiled for 5 min. The samples were separated by SDS-PAGE and transferred to nitrocellulose membrane (Bio-Rad).

[4] = test system: p53 and Rb pathways in HUVECs; assay: Western blot of p53, p21 and Rb in HUVEC; format: cell-based, human
Description: Cells were lysed by adding 1 volume of 2× Laemmli buffer and were then boiled for 5 min. The samples were separated by SDS-PAGE and transferred to nitrocellulose membrane (Bio-Rad). Proteins were detected using primary antibodies for p53 (Santa Cruz), met-14-3-3γ (Novus), p21 (Santa Cruz), Rb (Santa Cruz), MetAP2 (Hu, X. et al (2006) Proc. Natl. Acad. Sci. U.S.A. 103, 18148-18153), SirT1 (Santa Cruz), acetyl-p53-K382 (Abeam), acetyl-tubulin (Sigma), histone-H3 (Santa Cruz), acetyl-H3 (Santa Cruz) and α-tubulin (TU-02, Santa Cruz) followed by the incubation with horseradish peroxidase (HRP)-conjugated anti-mouse or anti-rabbit antibodies (Santa Cruz) and enhanced chemiluminescence (ECL, Amersham).

HUVEC [5] = assay: Endothelial cell tube formation assay; format: cell-based, human; details: Matrigel; EX527 1 μM, TNP470 10 nM
Description: HUVEC were seeded on a 96-well plate (2×10^4 cells/well) coated with Matrigel. The cells were then incubated for 16˜18 h in a humidified 5% CO2 incubator at 37° C. The cells were washed carefully with PBS once and Calcein-AM solution in PBS was then added to a final concentration of 2 μM. After incubation for an additional 30 min, the cells were washed carefully with PBS and observed under a fluorescence microscope (485 nm excitation/520 nm emission). The tube formed was quantified using AngioQuant v1.33 (The MathWorks).

HUVEC [6] = assay: Senescence associated-β-galactosidase (SA-β-gal) staining in HUVEC; format: cell-based, human
Description: Cells in 6-well plates were washed with PBS and fixed with 3% paraformaldehyde. After washing with PBS, the cells were incubated for 24 h at 37° C. (without CO2, protected from light) in freshly prepared SA-β-gal staining solution containing 1 mg/ml 5-bromo-4-chloro-3-indolyl β-D-galactopyranoside (X-gal), 5 mM potassium ferrocyanide, 5 mM potassium ferricyanide, 150 mM NaCl, 2 mM MgCl2 and 40 mM citric acid, titrated with NaH2PO4 to pH 6.0. SA-β-gal solution was then removed and the cells were washed with PBS. The stained cells were observed under a microscope.

What does the source list for `CO[C@@H]1[C@H](OC(=O)NC(=O)CCl)CC[C@]2(CO2)[C@H]1[C@@]1(C)O[C@@H]1CC=C(C)C` [TNP-470]?
growth of MetAP-1 deletion mutant (map1Δ) ([1]; map1Δ): significantly inhibited; growth of MetAP-2 deletion mutant ([1]; map2Δ): did not affect the growth; growth of wild-type yeast ([1]; wild type): did not inhibit the yeast growth; endothelial selectivity over other types of cancer cell lines [2]: around 1,000 fold; processing of 14-3-3γ by hMetAP2 [3]: completely blocked; Rb hyperphosphorylation ([4]; 8% SDS-PAGE): inhibited its hyperphosphorylation; total amount of Rb protein ([4]; 12% SDS-PAGE): increased the total amount of Rb protein; HUVEC tube formation (HUVEC [5]): did not inhibit tube formation; premature senescence in HUVEC (HUVEC [6]; 72 h, valproic acid 0.1 mM, TNP-470 20 nM): did not induce premature senescence; premature senescence in HUVEC (HUVEC [6]; 5 days, single compound or drug combination): did not
